Reference: patent US20100184867A1, “USE OF ACTIVE AGENTS FOR STIMULATING THE EXPRESSION OF FN3K AND/OR FN3K RP FOR COMBATING AGEING OF THE SKIN” (CHANEL PARFUMS BEAUTE, priority 2007, published 2010)

Test system: glycation of the extra-cellular matrix (ECM)
Assay: Glycation of the extra-cellular matrix (ECM) of fibroblasts: EFA content by dot blot and densitometric analysis
Type: cell-based, human
Conditions: 1 mg/ml
Protocol: Human normal fibroblasts were cultured at 37° C. in the presence of DMEM (Invitrogen) containing 10% of fetal bovine serum (Invitrogen) and 50 UI/ml of penicillin, 50 μg/ml of […] (Invitrogen) and 2 mM of glutamin. Collagen synthesis was stimulated by culturing cells in the presence of vitamin C at 20 μg/ml (Sigma) for 5 days. The cells were then washed with PBS and lysed by successive cycles of freezing and thawing.
Except for the controls, cell layers had previously been treated with Butea frondosa (at 0.02; 0.1 and 0.5%), which was prepared according to Example 1 or with a reference compound: aminoguanidin at 1 mg/ml (Sigma). The cells were then incubated in the presence of 0.1 mg/ml glucose. Each of the treatments was performed, in triplicate, for 15 days at 37° C. with 5% CO2.
At the end of the incubation period, ECM proteins (essentially collagen) were extracted, and the samples were then transferred onto a nitrocellulose membrane (Hybrond, ECL, Amersham) by means of a Milliblot dotblot (Millipore). All the controls were carried out in order to assess the specificity of the final response. No interference was observed. […]
The following table illustrates the effect of this treatment on glucose incorporation into macromolecules synthetised by fibroblasts. The presence of EFA was measured by dot blot analysis and densitometric analysis.

N=C(N)NN [Aminoguanidin, aminoguanidin]
Inhibition of EFA content compared to the control: 35% | EFA content relative to control (15 days, 0.1 mg/ml glucose, control 100%): 65%
